# Measured values as given in patent US10918645B2 (LIFEARC, priority 2016, dated 2021).
# Tests used:
# Format in all cases: biochemical
# Details in all cases: 1 μM inhibitor concentration
# [1] = biological target: JNK1 (Homo sapiens (Human), UniProt P45983); experiment: JNK1 kinase selectivity assay
# Method: JNK1a1/SAPK1c (5-20 mU diluted in 50 mM Tris pH 7.5, 0.1 mM EGTA, 1 mg/ml BSA, 0.1% b-mercaptoethanol) is assayed against ATF2 (activating transcription factor in a final volume of 25.5 μl in 50 mM Tris pH 7.5, 0.1 mM EGTA, 0.1% b-Mercaptoethanol, ATF2 (3 μM), 10 mM magnesium acetate and 0.02 mM [33P-g-ATP] (500-1000 cpm/pmole) and incubated for 30 min at room temperature. Assays are stopped by addition of 5 μl of 0.5 M (3%) orthophosphoric acid and then harvested onto P81 Unifilter plates with a wash buffer of 50 mM orthophosphoric acid.
# [2] = system: PHK; experiment: PHK kinase selectivity assay
# Method: […] (5-20 mU diluted in 50 mM Na-b-glycerophosphate pH 7.0, 0.1% b-mercaptoethanol) is assayed against phosphorylase b peptide ([…]) in a final volume of 25.5 μl containing 50 mM Tris pH 8.6, 50 mM Na-b-glycerophosphate, 0.04 mM CaCl2, phosphorylase b peptide (0.196 mM), 10 mM magnesium acetate, 0.02 mM [33P-g-ATP] (500-1000 cpm/pmole) then incubated for 15 min at room temperature. Assays are stopped by addition of 5 μl of 0.5 M (3%) orthophosphoric acid and then harvested onto P81 Unifilter plates with a wash buffer of 50 mM orthophosphoric acid.
# [3] = biological target: PKCz (Homo sapiens (Human), UniProt Q05513); experiment: PKCz kinase selectivity assay
# Sequence of PKCz (Q05513 whole entry): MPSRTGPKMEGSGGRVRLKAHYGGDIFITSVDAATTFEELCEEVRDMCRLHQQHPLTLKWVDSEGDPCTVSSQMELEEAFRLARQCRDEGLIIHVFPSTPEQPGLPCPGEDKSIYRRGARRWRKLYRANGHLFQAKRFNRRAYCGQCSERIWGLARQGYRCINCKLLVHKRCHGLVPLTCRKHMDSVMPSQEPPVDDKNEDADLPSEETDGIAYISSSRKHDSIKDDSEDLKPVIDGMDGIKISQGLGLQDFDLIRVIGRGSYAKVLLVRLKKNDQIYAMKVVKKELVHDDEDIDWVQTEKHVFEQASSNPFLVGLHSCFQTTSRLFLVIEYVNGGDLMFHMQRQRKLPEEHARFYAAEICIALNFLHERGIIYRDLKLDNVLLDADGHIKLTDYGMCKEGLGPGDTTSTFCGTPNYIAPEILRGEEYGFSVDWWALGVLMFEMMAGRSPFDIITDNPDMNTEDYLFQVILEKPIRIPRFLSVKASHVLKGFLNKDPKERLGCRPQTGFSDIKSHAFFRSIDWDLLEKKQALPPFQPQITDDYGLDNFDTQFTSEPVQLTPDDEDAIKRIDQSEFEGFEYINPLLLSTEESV
# Method: PKC zeta (5-20 mU diluted in 50 mM Tris pH 7.5, 0.1 mM EGTA, 0.1% b-mercaptoethanol, 1 mg/ml BSA, 100 μM Vanadate) is assayed against a substrate peptide ([…]) in a final volume of 25.5 μl containing 50 mM Tris pH 7.5, 0.05% b-mercaptoethanol, […], 300 μM substrate peptide, 10 mM magnesium acetate and 0.005 mM [33P-g-ATP] (50-1000 cpm/pmole) and incubated for 30 min at room temperature. Assays are stopped by addition of 5 μl of 0.5 M (3%) orthophosphoric acid and then harvested onto P81 Unifilter plates with a wash buffer of 50 mM orthophosphoric acid.
# [4] = biological target: TAK1 (Homo sapiens (Human), UniProt O43318); experiment: TAK1 kinase selectivity assay
# Sequence of TAK1 (O43318 1-303): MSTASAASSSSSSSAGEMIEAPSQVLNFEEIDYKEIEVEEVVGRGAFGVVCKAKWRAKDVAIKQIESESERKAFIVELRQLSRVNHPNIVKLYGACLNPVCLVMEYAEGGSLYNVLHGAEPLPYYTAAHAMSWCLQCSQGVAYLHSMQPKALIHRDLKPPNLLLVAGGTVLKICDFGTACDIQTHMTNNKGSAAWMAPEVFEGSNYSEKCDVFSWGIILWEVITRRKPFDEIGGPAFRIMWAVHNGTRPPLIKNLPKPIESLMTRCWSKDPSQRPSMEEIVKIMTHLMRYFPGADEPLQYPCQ
# Method: TAK1 (5-20 mU diluted in 50 mM Tris pH 7.5, 0.1 mM EGTA, 1 mg/ml BSA) is assayed against a substrate peptide ([…]) in a final volume of 25.5 μl containing 50 mM Tris pH 7.5, 0.1 mM EGTA, 0.1% β-Mercaptoethanol, 300 μM substrate peptide, 10 mM magnesium acetate, 0.5 mM MnCl and 0.005 mM [33P-γ-ATP](50-1000 cpm/pmole) and incubated for 30 min at room temperature. Assays are stopped by addition of 5 μl of 0.5 M (3%) orthophosphoric acid and then harvested onto P81 Unifilter plates with a wash buffer of 50 mM orthophosphoric acid.
# [5] = biological target: DYRK1A (Homo sapiens (Human), UniProt Q13627); experiment: DYRK1A kinase selectivity assay
# Method: DYRK 1A (5-20 mU of diluted in 50 mM Tris pH7.5, 0.1 mM EGTA) is assayed against Woodtide ([…]) in a final volume of 25.5 μl containing 50 mM Tris pH 7.5, 0.1 mM EGTA, 350 μM substrate peptide, 10 mM Magnesium acetate and 0.05 mM [33P-g-ATP](50-1000 cpm/pmole) and incubated for 30 min at room temperature. Assays are stopped by addition of 5 μl of 0.5 M (3%) orthophosphoric acid and then harvested onto P81 Unifilter plates with a wash buffer of 50 mM orthophosphoric acid.
# [6] = biological target: PAK4 (Homo sapiens (Human), UniProt O96013); experiment: PAK4 kinase selectivity assay
# Sequence of PAK4 (O96013 whole entry, species assumed): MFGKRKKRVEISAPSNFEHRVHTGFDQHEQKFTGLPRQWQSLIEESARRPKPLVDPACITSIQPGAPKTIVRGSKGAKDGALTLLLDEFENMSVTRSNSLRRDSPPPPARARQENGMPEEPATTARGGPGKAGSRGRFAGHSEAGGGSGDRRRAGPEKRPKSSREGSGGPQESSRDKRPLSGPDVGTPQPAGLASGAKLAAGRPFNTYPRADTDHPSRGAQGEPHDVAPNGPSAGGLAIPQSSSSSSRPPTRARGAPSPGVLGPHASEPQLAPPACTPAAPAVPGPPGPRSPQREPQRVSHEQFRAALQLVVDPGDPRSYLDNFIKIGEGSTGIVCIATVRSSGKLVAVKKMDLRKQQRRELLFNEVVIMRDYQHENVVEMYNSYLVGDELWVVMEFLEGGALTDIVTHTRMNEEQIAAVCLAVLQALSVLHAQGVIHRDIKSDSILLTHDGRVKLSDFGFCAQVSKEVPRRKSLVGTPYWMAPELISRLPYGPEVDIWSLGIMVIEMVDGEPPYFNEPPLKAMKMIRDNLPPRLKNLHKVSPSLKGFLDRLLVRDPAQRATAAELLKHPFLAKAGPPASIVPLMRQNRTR
# Method: PAK4 (5-20 mU diluted in 50 mM Tris pH 7.5, 0.1 mM EGTA, 0.1% b-mercaptoethanol, 1 mg/ml BSA) is assayed against a substrate peptide ([…]) in a final volume of 25.5 μl containing 50 mM Tris pH 7.5, 0.05% b-mercaptoethanol, 300 μM substrate peptide, 10 mM magnesium acetate and 0.005 mM [33P-g-ATP] (50-1000 cpm/pmole) and incubated for 30 min at room temperature. Assays are stopped by addition of 5 μl of 0.5 M (3%) orthophosphoric acid and then harvested onto P81 Unifilter plates with a wash buffer of 50 mM orthophosphoric acid.
# [7] = biological target: BTK (Homo sapiens (Human), UniProt Q06187); experiment: BTK kinase selectivity assay
# Sequence of BTK (Q06187 whole entry, species assumed): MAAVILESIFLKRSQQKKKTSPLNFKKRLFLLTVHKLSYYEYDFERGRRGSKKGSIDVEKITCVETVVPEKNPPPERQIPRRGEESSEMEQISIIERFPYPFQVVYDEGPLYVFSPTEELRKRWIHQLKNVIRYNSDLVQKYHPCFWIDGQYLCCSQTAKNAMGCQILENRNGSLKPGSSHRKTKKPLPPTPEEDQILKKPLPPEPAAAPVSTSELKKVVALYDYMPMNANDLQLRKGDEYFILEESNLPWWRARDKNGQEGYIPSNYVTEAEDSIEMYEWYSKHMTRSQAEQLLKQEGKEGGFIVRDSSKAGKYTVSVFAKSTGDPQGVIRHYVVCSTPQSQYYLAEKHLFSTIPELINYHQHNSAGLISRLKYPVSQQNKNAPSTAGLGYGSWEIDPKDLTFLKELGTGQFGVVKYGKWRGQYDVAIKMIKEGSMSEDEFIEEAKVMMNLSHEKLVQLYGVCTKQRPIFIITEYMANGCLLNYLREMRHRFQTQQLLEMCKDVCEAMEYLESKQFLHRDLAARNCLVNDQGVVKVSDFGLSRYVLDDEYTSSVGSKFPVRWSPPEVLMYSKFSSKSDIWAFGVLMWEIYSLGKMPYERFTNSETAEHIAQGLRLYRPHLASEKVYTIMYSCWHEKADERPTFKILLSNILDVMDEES
# Method: BTK (5-20 mU diluted in 50 mM Tris pH 7.5, 0.1 mM EGTA, 1 mg/ml BSA) is assayed against a substrate peptide ([…]) in a final volume of 25.5 μl containing 50 mM Tris pH 7.5, 300 µM substrate peptide, 10 mM magnesium acetate and 0.05 mM [33P-g-ATP] (50-1000 cpm/pmole) and incubated for 30 min at room temperature. Assays are stopped by addition of 5 μl of 0.5 M (3%) orthophosphoric acid and then harvested onto P81 Unifilter plates with a wash buffer of 50 mM orthophosphoric acid.
# [8] = system: Lck; experiment: Lck kinase selectivity assay
# Method: LCK (5-20 mU diluted in 20 mM MOPS pH 7.5, 1 mM EDTA, 0.01% Brij35, 5% glycerol, 0.1% b-mercaptoethanol, 1 mg/ml BSA) is assayed against Cdc2 peptide ([…]) in a final volume of 25.5 μl containing 50 mM Tris pH 7.5, 0.1 mM EGTA, 0.1 mM Na3Vo4, Cdc2 peptide (0.25 mM), 10 mM magnesium acetate and 0.05 mM [33P-g-ATP](500-1000 cpm/pmole) and incubated for 15 min at room temperature Assays are stopped by addition of 5 μl of 0.5 M (3%) orthophosphoric acid and then harvested onto P81 Unifilter plates with a wash buffer of 50 mM orthophosphoric acid.
# [9] = biological target: MST4 (Homo sapiens (Human), UniProt Q9P289); experiment: MST4 kinase selectivity assay
# Sequence of MST4 (Q9P289 whole entry, species assumed): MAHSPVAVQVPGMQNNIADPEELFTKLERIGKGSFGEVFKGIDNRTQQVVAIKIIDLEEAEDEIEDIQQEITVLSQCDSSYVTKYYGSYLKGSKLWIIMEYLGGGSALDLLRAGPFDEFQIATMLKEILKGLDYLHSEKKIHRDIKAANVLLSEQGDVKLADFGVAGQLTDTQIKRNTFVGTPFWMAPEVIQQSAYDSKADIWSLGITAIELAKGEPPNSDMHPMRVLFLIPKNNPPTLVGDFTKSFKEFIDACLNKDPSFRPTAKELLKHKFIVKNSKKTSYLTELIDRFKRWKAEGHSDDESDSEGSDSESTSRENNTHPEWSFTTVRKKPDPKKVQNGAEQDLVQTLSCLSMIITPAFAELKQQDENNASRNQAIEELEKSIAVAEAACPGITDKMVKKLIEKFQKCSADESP
# Method: 5-20 mU of MST4 (diluted in 50 mM Tris (pH 7.5), 0.1 mM EGTA) is assayed against MBP in a final volume of […] containing 50 mM Tris (pH 7.5), 0.1 mM EGTA, 0.33 mg/ml MBP, 10 mM magnesium acetate and 0.02 mM [33P-g-ATP](500-1000 cpm/pmole) and incubated for 30 mins at room temperature. Assays are stopped by addition of […] of 0.5M (3%) orthophosphoric acid. Assays are harvested onto P81 Unifilter plates using a wash buffer of 50 mM orthophosphoric acid.
# Sequence of JNK1 (P45983 other isoform, or with tags, fused parts or gaps, species assumed): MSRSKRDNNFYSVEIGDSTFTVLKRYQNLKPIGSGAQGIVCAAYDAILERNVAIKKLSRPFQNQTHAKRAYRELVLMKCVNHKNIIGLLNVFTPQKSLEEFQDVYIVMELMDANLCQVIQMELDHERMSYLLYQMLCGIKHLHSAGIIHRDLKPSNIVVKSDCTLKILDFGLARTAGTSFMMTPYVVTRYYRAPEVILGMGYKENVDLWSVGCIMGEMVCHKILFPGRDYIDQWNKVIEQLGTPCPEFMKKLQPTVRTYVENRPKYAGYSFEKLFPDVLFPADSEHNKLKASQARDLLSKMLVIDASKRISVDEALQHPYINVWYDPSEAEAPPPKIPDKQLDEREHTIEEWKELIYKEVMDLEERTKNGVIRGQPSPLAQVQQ
SMILES,percentage inhibition of JNK1 [1],percentage inhibition of PHK [2],percentage inhibition of PKCz [3],percentage inhibition of TAK1 [4],percentage inhibition of DYRK1A [5],percentage inhibition of PAK4 [6],percentage inhibition of BTK [7],percentage inhibition of Lck [8],percentage inhibition of MST4 [9]
"c1cc2[nH]nc3c2c(n1)N(C1CCC1)CCC3 [Example 22, 6-cyclobutyl-6,7,8,9-tetrahydro-2H-1,2,5,6-tetraazabenzo[cd]azulene]",0 percentage,41 percentage,0 percentage,64 percentage,16 percentage,6 percentage,0 percentage,0 percentage,6 percentage
"c1cc2[nH]nc3c2c(n1)N(C1CCCC1)CCC3 [Example 23, 6-cyclopentyl-6,7,8,9-tetrahydro-2H-1,2,5,6-tetraazabenzo[cd]azulene]",0 percentage,–,0 percentage,49 percentage,0 percentage,0 percentage,0 percentage,–,0 percentage
"c1cc2[nH]nc3c2c(n1)N(C1CCOCC1)CCC3 [Example 29, 6-(tetrahydro-2H-pyran-4-yl)-6,7,8,9-tetrahydro-2H-1,2,5,6-tetraazabenzo[cd]azulene]",0 percentage,35 percentage,0 percentage,65 percentage,4 percentage,7 percentage,0 percentage,0 percentage,1 percentage
CN1CCC(N2Cc3ccccc3-c3n[nH]c4ccnc2c34)CC1 [Example 55],49 percentage,73 percentage,0 percentage,64 percentage,8 percentage,20 percentage,0 percentage,6 percentage,0 percentage
CC(C)n1ncc2c1CN(C1CCN(C)CC1)c1nccc3[nH]nc-2c13 [Example 68],48 percentage,43 percentage,1 percentage,36 percentage,0 percentage,25 percentage,0 percentage,0 percentage,0 percentage
